Data from ChEMBL document CHEMBL6078714, “Discovery of N-Trifluoromethylated Noscapines as Novel and Potent Agents for the Treatment of Glioblastoma” (J Med Chem, 2025).
Calls of active or inactive are those of the source. No cut-off for these calls is given here.

Tests used:
[1] = system: U-118-MG; test: Cell cycle arrest in human U-118-MG cells assessed as accumulation of cells at S phase at 3 uM incubated for 24 hrs by flow cytometric analysis (reference value: 10.7 %); format: functional
[2] = system: U-118-MG; test: Cell cycle arrest in human U-118-MG cells assessed as accumulation of cells at G1 phase at 10 uM incubated for 24 hrs by flow cytometric analysis (reference value: 56.2 %); format: functional
[3] = Drug distribution in Sprague-Dawley rat brain at 5 mg/kg, ip measured after 4 hrs; format: ADME, organism-based; conditions: read-out: Ct
[4] = Toxicity in male BALB/c nude mouse xenografted with human U-118-MG cells assessed as effect on serum urea level at 2.5 to 10 mg/kg, ip administered daily for 4 weeks; format: organism-based; conditions: in vivo, 672 h, dose 2.5-10 mg/kg
[5] = system: U-118-MG; test: Inhibition of cell migration in human U-118-MG cells incubated for 24 hrs by transwell assay; format: functional, cell-based; conditions: dose 0.1-10 µM
[6] = system: U-118-MG; test: Cell cycle arrest in human U-118-MG cells assessed as accumulation of cells at G1 phase at 30 uM incubated for 24 hrs by flow cytometric analysis (reference value: 56.2 %); format: functional
[7] = system: U-118-MG; test: Cell cycle arrest in human U-118-MG cells assessed as accumulation of cells at S phase at 10 uM incubated for 24 hrs by flow cytometric analysis (reference value: 10.7 %); format: functional
[8] = Toxicity in male BALB/c nude mouse xenografted with human U-118-MG cells assessed as effect on serum AST level at 2.5 to 10 mg/kg, ip administered daily for 4 weeks; format: organism-based; conditions: in vivo, 672 h, dose 2.5-10 mg/kg
[9] = system: U-118-MG; test: Cell cycle arrest in human U-118-MG cells assessed as accumulation of cells at G1 phase at 3 uM incubated for 24 hrs by flow cytometric analysis (reference value: 56.2 %); format: functional
[10] = Toxicity in male BALB/c nude mouse xenografted with human U-118-MG cells assessed as metastasis in liver at 2.5 to 10 mg/kg, ip administered daily for 4 weeks by H and E staining based analysis; format: organism-based; conditions: in vivo, 672 h, dose 2.5-10 mg/kg
[11] = system: U-118-MG; test: Induction of apoptosis in human U-118-MG cells assessed as downregulation of Bcl-XL expression level at 1 to 40 uM incubated for 24 hrs by Western blot analysis; format: functional, cell-based; conditions: dose 1-40 µM
[12] = Cmax in Sprague-Dawley rat at 5 mg/kg, ip; format: ADME, organism-based; conditions: in vivo
[13] = Permeability of compound incubated for 12 hrs by PAMPA; format: ADME; conditions: read-out: permeability
[14] = Stability of compound in sodium carbonate buffer at pH 10 measured after 48 hrs by 1H NMR analysis; format: physicochemical; conditions: pH 10, 48 h
[15] = Ratio of drug concentration in Sprague-Dawley rat brain to plasma at 5 mg/kg, ip measured after 0.5 hrs; format: ADME, organism-based; conditions: read-out: BPR
[16] = Toxicity in male BALB/c nude mouse xenografted with human U-118-MG cells assessed as metastasis in lung at 2.5 to 10 mg/kg, ip administered daily for 4 weeks by H and E staining based analysis; format: organism-based; conditions: in vivo, 672 h, dose 2.5-10 mg/kg
[17] = system: U-118-MG; test: Cell cycle arrest in human U-118-MG cells assessed as accumulation of cells at G2 phase at 30 uM incubated for 24 hrs by flow cytometric analysis (reference value: 30.6 %); format: functional
[18] = system: U-118-MG; test: Antiproliferative activity against human U-118- MG cells assessed as inhibition of cell proliferation at 10 uM by crystal violet staining based analysis; format: functional
[19] = system: U-118-MG; test: Antitumor activity against human U-118-MG cells xenografted in male BALB/c nude mouse assessed as tumor growth inhibition at 10 mg/kg, ip administered daily for 4 weeks relative to control; format: functional; conditions: 672 h, read-out: TGI
[20] = system: U-118-MG; test: Cell cycle arrest in human U-118-MG cells assessed as accumulation of cells at G2 phase at 3 uM incubated for 24 hrs by flow cytometric analysis (reference value: 30.6 %); format: functional
[21] = system: U-118-MG; test: Inhibition of cell migration in human U-118-MG cells assessed as decrease in number of migrating cells at 0.1 uM incubated for 24 hrs by transwell assay; format: functional, cell-based
[22] = system: U-118-MG; test: Inhibition of cell migration in human U-118-MG cells at 0.1 to 10 uM incubated for 24 hrs by microscopy based wound healing assay; format: functional; conditions: dose 0.1-10 µM
[23] = Toxicity in male BALB/c nude mouse xenografted with human U-118-MG cells assessed as effect on serum creatinine level at 2.5 to 10 mg/kg, ip administered daily for 4 weeks; format: organism-based; conditions: in vivo, 672 h, dose 2.5-10 mg/kg
[24] = molecular target: Tubulin (Homo sapiens) (UniProt P68371+Q9H4B7+P0DPH7+P68366+Q13509+Q71U36+P04350+Q3ZCM7+P07437+P68363+Q9BQE3+Q6PEY2+Q13885+Q9BVA1+Q9BUF5); test: Disruption of tubulin polymerization in human U-118-MG cells at 3 to 20 uM by DAPI staining based immunofluorescence analysis; format: cell-based; conditions: dose 3-20 µM
[25] = system: U-87 MG; test: Antiproliferative activity against human U-87 MG cells assessed as inhibition of cell proliferation incubated for 72 hrs by CCK8 assay; format: functional, cell-based, U-87MG ATCC
[26] = Stability of compound in 0.1M HCl solution at pH 1.0 assessed as parent compound remaining measured after 48 hrs by 1H NMR analysis; format: physicochemical; conditions: read-out: Stability
[27] = system: U-118-MG; test: Cell cycle arrest in human U-118-MG cells assessed as accumulation of cells at G1 phase at 20 uM incubated for 24 hrs by flow cytometric analysis (reference value: 56.2 %); format: functional
[28] = Toxicity in male BALB/c nude mouse xenografted with human U-118-MG cells assessed as body weight loss at 2.5 to 10 mg/kg, ip administered daily for 4 weeks; format: organism-based; conditions: in vivo, 672 h, dose 2.5-10 mg/kg
[29] = Ratio of drug concentration in Sprague-Dawley rat brain to plasma at 5 mg/kg, ip measured after 4 hrs; format: ADME, organism-based; conditions: read-out: BPR
[30] = system: U-118-MG; test: Antitumor activity against human U-118-MG cells xenografted in male BALB/c nude mouse assessed as suppression of tumor growth at 2.5 to 10 mg/kg, ip administered daily for 4 weeks; format: functional, organism-based; conditions: dose 2.5-10 mg/kg
[31] = AUC (0 to 24 hrs) in Sprague-Dawley rat at 5 mg/kg, ip; format: ADME, organism-based; conditions: in vivo
[32] = Observed clearance in Sprague-Dawley rat at 5 mg/kg, ip; format: ADME, organism-based; conditions: in vivo
[33] = system: U-118-MG; test: Antiproliferative activity against human U-118-MG cells assessed as inhibition of cell proliferation incubated for 72 hrs by CCK8 assay; format: functional, cell-based
[34] = Toxicity in male BALB/c nude mouse xenografted with human U-118-MG cells assessed as metastasis in spleen at 2.5 to 10 mg/kg, ip administered daily for 4 weeks by H and E staining based analysis; format: organism-based; conditions: in vivo, 672 h, dose 2.5-10 mg/kg
[35] = Drug distribution in Sprague-Dawley rat plasma at 5 mg/kg, ip measured after 4 hrs; format: ADME, organism-based
[36] = system: U-118-MG; test: Antitumor activity against human U-118-MG cells xenografted in male BALB/c nude mouse assessed as tumor growth inhibition at 2.5 mg/kg, ip administered daily for 4 weeks relative to control; format: functional; conditions: 672 h, read-out: TGI
[37] = system: U-118-MG; test: Inhibition of cell migration in human U-118-MG cells assessed as decrease in number of migrating cells at 1 uM incubated for 24 hrs by transwell assay; format: functional, cell-based
[38] = system: U-118-MG; test: Antiproliferative activity against human U-118- MG cells assessed as inhibition of cell proliferation by crystal violet staining based analysis; format: functional; conditions: dose 10-40 µM

concentration at 4 h [3]: 34.5 ng/g
Cmax [12]: 152 ng/mL
Papp at 12 h [13]: 12.1 ×10⁻⁶ cm/s
Stability [14]: Stable
Kp at 0.5 h [15]: 0.349
Activity [24]: Active
IC50 [25]: 7.46 µM
remaining at 48 h [26]: 86%
Kp at 4 h [29]: 0.517
AUC [31]: 661 ng·h/mL
CL [32]: 8.08 L/h/kg
concentration at 4 h [35]: 69.4 ng/mL
SMILES: COc1ccc2c(c1OC)C(=O)O[C@@H]2[C@H]1c2c(c(Br)c3c(c2OC)OCO3)CCN1C(F)(F)F
Activity [1]: 10.4%
Activity [2]: 56.6%
Activity [4]: Non-toxic
inhibition [5]: Dose-dependent-effect
Activity [6]: 29.5%
Activity [7]: 9.24%
Activity [8]: Non-toxic
Activity [9]: 55.7%
Activity [10]: Non-toxic
Activity [11]: Active
Activity [16]: Non-toxic
Activity [17]: 52.2%
Activity [18]: Active
inhibition in vivo at 10 mg/kg [19]: 38.5%
Activity [20]: 31.7%
inhibition [21]: Active
inhibition [22]: Active
Activity [23]: Non-toxic
Activity [27]: 48.3%
Activity [28]: Non-toxic
Activity [30]: Active
IC50 [33]: 1550 nM
Activity [34]: Non-toxic
inhibition in vivo at 2.5 mg/kg [36]: 34.4%
inhibition [37]: Active; Superior Inhibitory Activity Compared To Noscapine And Tmz
Activity [38]: Dose-dependent-effect
